# Data: ChEMBL document CHEMBL2074493, “Reversal of multidrug resistance-associated protein-mediated drug resistance by the pyridine analog PAK-104P” (Mol Pharmacol, 1997)
# Tests used:
# [1] = molecular target: T1, Multidrug resistance-associated protein 1 (Homo sapiens, UniProt P33527); assay: TP_TRANSPORTER: increase in Vincristine intracellular accumulation (Vincristine: 1 uM, PAK-104P: 10 uM) in KB-3-1 and C-A120 cell; type: functional, cell-based; conditions: kb-3-1;c-a120, 10 µM
# [2] = molecular target: T1, Multidrug resistance-associated protein 1; assay: TP_TRANSPORTER: intracellular accumulation in KB-3-1 and C-A120 cells; type: functional, cell-based, KB-3-1; C-A120
# T1 sequence (P33527 whole entry): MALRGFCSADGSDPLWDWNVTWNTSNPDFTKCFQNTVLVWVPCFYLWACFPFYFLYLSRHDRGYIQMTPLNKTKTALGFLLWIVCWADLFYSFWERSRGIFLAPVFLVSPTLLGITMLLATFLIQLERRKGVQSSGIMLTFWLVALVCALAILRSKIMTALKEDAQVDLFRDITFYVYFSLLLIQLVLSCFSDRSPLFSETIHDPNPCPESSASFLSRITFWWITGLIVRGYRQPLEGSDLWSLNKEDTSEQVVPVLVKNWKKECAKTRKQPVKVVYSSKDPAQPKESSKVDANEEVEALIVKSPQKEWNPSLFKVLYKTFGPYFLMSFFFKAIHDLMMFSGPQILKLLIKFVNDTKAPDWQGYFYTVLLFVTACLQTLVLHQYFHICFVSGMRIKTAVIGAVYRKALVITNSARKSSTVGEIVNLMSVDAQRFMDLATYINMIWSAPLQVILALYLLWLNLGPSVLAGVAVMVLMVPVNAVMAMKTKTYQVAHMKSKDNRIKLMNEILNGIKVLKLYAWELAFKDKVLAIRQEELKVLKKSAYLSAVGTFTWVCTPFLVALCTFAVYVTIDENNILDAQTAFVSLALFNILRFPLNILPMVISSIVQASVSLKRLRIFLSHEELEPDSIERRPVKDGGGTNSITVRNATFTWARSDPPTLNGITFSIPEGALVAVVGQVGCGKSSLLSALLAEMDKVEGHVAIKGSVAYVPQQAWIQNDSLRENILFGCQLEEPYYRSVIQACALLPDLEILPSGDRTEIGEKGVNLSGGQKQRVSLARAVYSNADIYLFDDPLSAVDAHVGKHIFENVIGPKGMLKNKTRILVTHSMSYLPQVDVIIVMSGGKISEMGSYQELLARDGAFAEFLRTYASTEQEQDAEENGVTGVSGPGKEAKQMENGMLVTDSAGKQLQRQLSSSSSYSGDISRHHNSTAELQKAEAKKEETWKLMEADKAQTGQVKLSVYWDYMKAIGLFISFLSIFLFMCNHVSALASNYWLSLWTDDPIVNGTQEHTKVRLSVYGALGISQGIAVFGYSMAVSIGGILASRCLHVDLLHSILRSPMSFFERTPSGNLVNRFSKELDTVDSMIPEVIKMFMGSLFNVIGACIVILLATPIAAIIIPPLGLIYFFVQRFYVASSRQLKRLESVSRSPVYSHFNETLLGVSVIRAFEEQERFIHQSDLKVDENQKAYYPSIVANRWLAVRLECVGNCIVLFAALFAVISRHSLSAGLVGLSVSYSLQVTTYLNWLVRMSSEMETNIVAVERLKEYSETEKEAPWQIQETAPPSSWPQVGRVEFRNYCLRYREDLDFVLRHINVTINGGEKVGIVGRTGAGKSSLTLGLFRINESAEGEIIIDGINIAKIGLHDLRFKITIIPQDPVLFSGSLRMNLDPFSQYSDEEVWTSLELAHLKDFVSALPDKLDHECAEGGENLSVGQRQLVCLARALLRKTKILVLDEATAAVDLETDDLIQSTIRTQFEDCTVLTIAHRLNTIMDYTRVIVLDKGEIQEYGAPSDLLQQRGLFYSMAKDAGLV
structure (smiles),measurement,setting,value
Cc1nc(C)c(P2(=O)O[C@H](C)C[C@@H](C)O2)c(-c2cccc([N+](=O)[O-])c2)c1C(=O)OCCN1CCN(C(c2ccccc2)c2ccccc2)CC1 (some centres not stated),Activity,[1],inhibitor [1.3 to 1.7-fold]
CC[C@]1(O)C[C@H]2CN(CCc3c([nH]c4ccccc34)[C@@](C(=O)OC)(c3cc4c(cc3OC)N(C=O)[C@H]3[C@@](O)(C(=O)OC)[C@H](OC(C)=O)[C@]5(CC)C=CCN6CC[C@]43[C@@H]65)C2)C1 [VINCRISTINE],Activity,[2],substrate [+]
